“And” between values parts separate entries of the source, which are not always exact repeats. Identical values can stand only once.
Experiments:
[1] = Nucleic acid encapsulation rate by Ribogreen (section II); type: physicochemical; details: for % mRNA encapsulation: NlucmRNA-loaded LNP, 60:10:40:1; for % pDNA encapsulation: pFluc-loaded LNP
Protocol: The encapsulation rates of siRNA, mRNA, and pDNA of lipid nanoparticles were measured using Ribogreen (manufactured by life technologies).

[2] = Storage stability of FlucmRNA-loaded LNP at −80, 5, 25 and 40° C.; type: physicochemical
How it was run: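 Reported period is how long all three criteria hold: encapsulation rate at 80% or more, PDI of 0.2 or less, and mean particle size within +/−20 nm of day-of-preparation value. Particle size, PDI and nucleic acid encapsulation were tracked over time at storage temperatures of −80, 5, 25 and 40° C.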

[3] = Zeta potential in 10 mM HEPES buffer (pH 7.4); type: physicochemical
Protocol: (§1) The average particle size (number-average value) and PDI in PBS(−) and zeta potential in 10 mM HEPES buffer solution (pH 7.4) of lipid nanoparticles were measured using “Zetasizer Nano ZS ZEN3600”, an analyzer utilizing dynamic light scattering (manufactured by Malvern).

[4] = siRNA/mRNA encapsulation rate by Ribogreen reagent (section IV); type: physicochemical; details: for % siRNA encapsulation: F7siRNA-loaded LNP, 50:10:38.5:1.5, N/P ratio 6; for % mRNA encapsulation: FlucmRNA-loaded LNP, 50:10:38.5:1.5
How it was run: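 Encapsulation % was calculated as (total − surface nucleic acid)/total × 100, with both values measured by RiboGreen fluorescence at 485/528 nm. Total RNA was read on LNPs lysed with 1% Triton X-100 at 1.2 μg/mL, and surface RNA on intact LNPs at 8 μg/mL in TE buffer. Concentrations came from a 0-2.5 μg/mL Triton-containing calibration curve.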

[5] = pKa of lipid nanoparticles by TNS (section II); type: physicochemical; details: F7siRNA-loaded LNP; compared with LNP of straight-chain CL4H6 or CL15H6 (FIG. 1)
Protocol: The pKa of lipid nanoparticles was measured using p-toluidino-2-naphthalenesulfonic acid (TNS). First, TNS (final concentration: 0.75 μM) and lipid nanoparticles (final concentration: […]) were mixed in buffer solution adjusted to each pH. The fluorescence intensity of the prepared mixture was measured with a microplate reader. The highest and lowest values among the measured values were taken as 100% and 0% charge rates respectively, and the pH indicating 50% charge rate was calculated as pKa.

[6] = system: F7; test: In vivo F7 knockdown, plasma F7 enzyme activity (BIOPHEN FVII), Balb/c mice; details: i.v. 0.025 mg siRNA/kg, plasma at 24 hours
How it was run: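 Plasma factor VII activity was read 24 h after a single intravenous 0.025 mg siRNA/kg dose of siRNA-loaded lipid nanoparticles in 5-week-old female Balb/c mice. Activity is relative to untreated animals (100%) and normalised to the MC3 nanoparticle benchmark (=1).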

[7] = Average particle size (ζ-Average) and PDI by dynamic light scattering (Zetasizer Nano ZSP); type: physicochemical
How it was run: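 Dynamic light scattering of the particles in PBS(−) gave both the polydispersity index and the ζ-Average mean size.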

[8] = system: F7; test: In vivo F7 knockdown, plasma F7 enzyme activity, ICR mice; details: i.v. 0.003-0.1 mg siRNA/kg, plasma at 24 hours, compared with LNP of CL4H6 or CL15H6 (FIG. 2)
Protocol: Then, each prepared F7siRNA-loaded lipid nanoparticles were administered to ICR mice (4 weeks old, female) and in vivo F7 knockdown activity was examined.
Specifically, each F7siRNA-loaded lipid nanoparticles were intravenously administered to ICR mice at 0.003-0.1 mg siRNA/kg, and plasma F7 enzyme activity at 24 hours later was measured. Relative plasma F7 enzyme activity (%) of mice administered each F7siRNA-loaded lipid nanoparticles was calculated using plasma F7 enzyme activity of untreated mice as 100%. FIG. 2(B) is the results of intravenous administration of each F7siRNA-loaded lipid nanoparticle at 0.1 mg siRNA/kg.

[9] = Average particle size and PDI by dynamic light scattering (Zetasizer Nano ZS); type: physicochemical
Protocol: as §1

[10] = system: factor VII (F7); details: mouse liver; lipid as LNP carrier of siRNA; cited from earlier work
[11] = system: spleen; test: In vivo Fluc activity of FlucmRNA-loaded LNP by in vivo imaging, spleen; details: Balb/c mice, FlucmRNA-loaded LNP i.v. 0.1 mg mRNA/kg, 6 hours
How it was run: (§2)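 Read-out is average radiance (p/s/cm2/sr, about 560 nm) from whole-animal imaging of liver and spleen 6 h post-dose, after tail-vein luciferin at 1.5 mg/mouse. Dosing was intravenous, 0.1 mg mRNA/kg, in 7-week-old female Balb/c mice.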

[12] = system: liver; test: In vivo Fluc activity of FlucmRNA-loaded LNP by in vivo imaging, liver; details: Balb/c mice, FlucmRNA-loaded LNP i.v. 0.1 mg mRNA/kg, 6 hours
How it was run: as §2

[13] = NlucmRNA-loaded LNP, 60:10:40:1
[14] = F7siRNA-loaded LNP, 50:10:38.5:1.5, N/P ratio 6
[15] = FlucmRNA-loaded LNP, lipid:DSPC:cholesterol:DMG-PEG2K 50:10:38.5:1.5
[16] = NlucmRNA-loaded LNP, lipid:DSPC:cholesterol:PEG-DMG 60:10:40:1
[17] = pFluc-loaded LNP, 50:10:40:1.5, N/P ratio 6
[18] = pFluc-loaded LNP, 50:10:40:1.5, N/P ratio 9

| % mRNA encapsulation [1] | % pDNA encapsulation ([1]; N/P ratio 6) | % pDNA encapsulation ([1]; N/P ratio 9) | ζ-potential (mV) [3, 13] | ζ-potential (mV) ([3]; pFluc-loaded LNP, N/P ratio 6) | ζ-potential (mV) ([3]; pFluc-loaded LNP, N/P ratio 9) | % siRNA encapsulation [4] | % mRNA encapsulation [4] | pKa of lipid nanoparticle, compared [5] | PDI [7, 14] | ζ-Average (nm) [7, 14] | ζ-Average (nm) [7, 15] | PdI [9, 13] | ζ-Average (nm) [9, 16] | ζ-Average (nm) [9, 17] | ζ-Average (nm) [9, 18] | PdI ([9]; pFluc-loaded LNP, N/P ratio 6) | PdI ([9]; pFluc-loaded LNP, N/P ratio 9) | SMILES | in vivo F7 knockdown activity, compared [8] | ED50 in F7 knockdown [10] | also measured |
| --- | --- | --- | --- | --- | --- | --- | --- | --- | --- | --- | --- | --- | --- | --- | --- | --- | --- | --- | --- | --- | --- |
| 90% | 97.1% | 94.8 ± 3.3% | −3.72 mV | −5.17 mV | −1.7 ± 0.5 mV | 99.9% | 99.6% and 99.4% | lower pKa | 0.014 | 92.27 nm | 82.66 nm and 88.07 nm | 0.157 | 127.2 nm | 79.91 nm | 91.3 ± 11.2 nm | 0.08 | 0.19 ± 0.03 | CCCCCCCCC(CCCCCC)C(=O)OCCCCCCC(O)(CCCCCCOC(=O)C(CCCCCC)CCCCCCCC)CCCCN(CCC)CCC (stereo not shown) [CL4F6, 7-(4-(dipropylamino)butyl)-7-hydroxytridecane-1,13-diyl bis(2-hexyldecanoate)] | equivalent in vivo F7 knockdown activity |  | period for which quality remained good, −80° C. ([2]; maximum storage period 1 week): 1 week; period for which quality remained good, 5° C. ([2]; maximum storage period 5 weeks): 5 weeks; period for which quality remained good, 25° C. ([2]; maximum storage period 5 weeks): 5 weeks; period for which quality remained good, 40° C. (weeks) ([2]; maximum storage period 5 weeks): 5 weeks; F7 enzyme activity (%) ([6]; untreated mice as 100%): 6.8% |
|  |  |  |  |  |  |  |  |  |  |  |  |  |  |  |  |  |  | CCCCCC/C=C\COC(=O)CCCCCCCC(CCCCCCCC(=O)OC/C=C\CCCCCC)OC(=O)CCCN(C)C [L319] |  | 0.01 mg siRNA/kg |  |
| 91.8% | 94.7% | 91.1 ± 2.1% | 0.419 mV | −5.84 mV | −1.9 ± 0.6 mV | 100.7% | 100.24% | lower pKa | 0.021 | 97.73 nm | 102.40 nm | 0.201 | 71.65 nm | 86.39 nm | 100.9 ± 10.7 nm | 0.03 | 0.12 ± 0.08 | CC(CCC(C(=O)OCCCCCCC(O)(CCCCCCOC(=O)C(CCC(C)CC(C)(C)C)C(C)CC(C)(C)C)CCCCOC(=O)C1CCN(C)CC1)C(C)CC(C)(C)C)CC(C)(C)C (stereo not shown) [CL15G6] | equivalent in vivo F7 knockdown activity |  | F7 enzyme activity (Ratio using MC3 as 1) ([6]; relative plasma F7 activity of MC3 LNP as 1): 2.69; Fluc Activity in spleen [11]: 2.77E+06 Avg Radiance [p/s/cm2/sr]; Fluc Activity in liver [12]: 6.52E+06 Avg Radiance [p/s/cm2/sr]; PDI ([7]; FlucmRNA-loaded LNP, 50:10:38.5:1.5): 0.012 |
|  |  |  |  |  |  |  |  |  |  |  |  |  |  |  |  |  |  | CCCCCCCCCCC(O)CN(CCCCC1NC(=O)C(CCCCN(CC(O)CCCCCCCCCC)CC(O)CCCCCCCCCC)NC1=O)CC(O)CCCCCCCCCC (stereo not shown) [cKK-E12] |  | 0.002 mg siRNA/kg |  |
